In patent US7998954B2, “Pyrimidodiazepinone derivative” (Kyowa Hakko Kirin Co., Ltd., priority 2007, dated 2011):

System: Rats with chronic constriction nerve injury
Assay: Analgesic effect in rats with chronic constriction nerve injury (von Frey filaments, 50% pain threshold)
Assay type: in vivo, rat
Conditions: oral, dose of 30 mg/kg or less, measured after 3 hours
Excerpt: Analgesic Effect of Compounds in Rats with Chronic Constriction Nerve Injury
Rats with chronic constriction nerve injury were produced by partially modifying the method of Mosconi and Kruger et al. [Pain, 1996, Vol. 64, p. 37-57] with slight modification.
The sciatic nerve in the left posterior leg of male Crl:CD (SD) rats was exfoliated under pentobarbital anesthesia, and a polyethylene tube (trade name: Intramedic; size: PE-60; Becton Dickinson) having a length of 2 mm was wrapped over the site of exfoliation. On days 14 to 21 after the surgery, the rats were placed in an acrylic quadruple cage (width 900 mm×depth 210 mm×height 140 mm) with a wire mesh floor consisting 4 cages connected in a row. Pain evaluation was performed after at least 20 minutes to allow the rats to acclimate to the new environment.
In pain evaluation, von Frey filaments (trade name: Touch Test Sensory Evaluator; Model: 58011; Muromachi Kikai Co., Ltd.) were used. The results were calculated as a pain thresholds. That is, by using a von Frey filament of different stimulus intensity, stimulation was given to the plantar surface of the injured side of rats with chronic constriction nerve injury, and the stimulus intensity to cause paw withdrawal response was obtained. […] 441-462]. The 50% pain thresholds of normal rats were 10 to 12 g on average.
For the evaluation of test compounds, rats with 50% pain thresholds of less than 4 g were used. The test compounds were suspended in a 0.5% aqueous methyl cellulose solution, and orally administered at a volume of 5 mL/kg. After 3 hours, pain thresholds were measured using von Frey filaments.

Compound	pain thresholds (50% paw withdrawal thresholds)
CCNc1ncc2c(n1)N1CCC[C@H]1CN(c1cncc(-c3nnc(C)o3)c1)C2=O [Compound 43, (S)-9-Ethylamino-5-[5-(5-methyl-1,3,4-oxadiazol-2-yl)pyridin-3-yl]-1,2,3,3a,4,5-hexahydro-5,8,10,10b-tetraazabenzo[e]azulen-6-one]	significantly increased pain thresholds
CCNc1ncc2c(n1)N1CCC[C@H]1CN(c1cccc(-c3noc(C)n3)c1)C2=O [Compound 72, (S)-9-Ethylamino-5-[3-(5-methyl-1,2,4-oxadiazol-3-yl)phenyl]-1,2,3,3a,4,5-hexahydro-5,8,10,10b-tetraazabenzo[e]azulen-6-one]	significantly increased pain thresholds
CNc1ncc2c(n1)N1CCC[C@H]1CN(c1cccc(-c3nn(C)c(=O)o3)c1)C2=O [Compound 89, (S)-3-Methyl-5-[3-(9-methylamino-6-oxo-2,3,3a,4-tetrahydro-1H,6H-5,8,10,10b-tetraazabenzo[e]azulen-5-yl)phenyl]-1,3,4-oxadiazol-2(3H)-one]	significantly increased pain thresholds
CCNc1ncc2c(n1)N1CCCC1CN(c1cccc(-c3ccnc(Cl)c3)c1)C2=O (stereo not shown) [Compound 16, 5-[3-(2-Chloropyridin-4-yl)phenyl]-9-ethylamino-1,2,3,3a,4,5-hexahydro-5,8,10,10b-tetraazabenzo[e]azulen-6-one]	significantly increased pain thresholds
CNc1ncc2c(n1)N1CCC[C@H]1CN(c1cccc(-c3noc(C)n3)c1)C2=O [Compound 74, (S)-5-[3-(5-Methyl-1,2,4-oxadiazol-3-yl)phenyl]-9-methylamino-1,2,3,3a,4,5-hexahydro-5,8,10,10b-tetraazabenzo[e]azulen-6-one]	significantly increased pain thresholds
CCNc1ncc2c(n1)N1CCC[C@H]1CN(c1cccc(-c3nn(C)c(=O)o3)c1)C2=O [Compound 90, (S)-5-[3-(9-Ethylamino-6-oxo-2,3,3a,4-tetrahydro-1H,6H-5,8,10,10b-tetraazabenzo[e]azulen-5-yl)phenyl]-3-methyl-1,3,4-oxadiazol-2(3H)-one]	significantly increased pain thresholds
CCNc1ncc2c(n1)N1CCCC1CN(c1cccc(-c3nnc(C)o3)c1)C2=O (stereo not shown) [Compound 20, 9-Ethylamino-5-[3-(5-methyl-[1,3,4]oxadiazol-2-yl)phenyl]-1,2,3,3a,4,5-hexahydro-5,8,10,10b-tetraazabenzo[e]azulen-6-one]	significantly increased pain thresholds
CNc1ncc2c(n1)N1CCC[C@H]1CN(c1cccc(-c3nnn(C)n3)c1)C2=O [Compound 137, (S)-5-[3-(2-Methyl-2H-tetrazol-5-yl)phenyl]-9-methylamino-1,2,3,3a,4,5-hexahydro-5,8,10,10b-tetraazabenzo[e]azulen-6-one]	significantly increased pain thresholds

System: chronic dermatitis model with repeated hapten applications
Assay: Effects on pruritus in chronic dermatitis model with repeated hapten (oxazolone) applications
Assay type: in vivo
Conditions: 100 mg/kg oral, 1 hour before antigen application on day 16; BALB/c mice; ***P < 0.001, t-test vs control group
Excerpt: Effects on Pruritus in Chronic Dermatitis Model with Repeated Hapten Applications
A chronic dermatitis model with repeated hapten applications was produced by partially modifying the method of Kitagaki et al. [Journal of Investigative Dermatology, 1995, Vol. 105, p. 749-755].
Oxazolone (Sigma-Aldrich) was used as hapten, and dissolved in acetone (Kanto Kagaku) to prepare a 0.5 w/v % oxazolone-acetone solution (antigen solution). BALB/c mice (6 weeks of age) were sensitized by a single application of the antigen solution (10 μL) to the shaved rostral back. […]
Itch response of the mice on day 16 was analyzed by partially modifying the method of Kuraishi et al. [European journal of phamacology, 1995, Vol. 275, p. […]
To allow the mice to acclimate to new environment, the mice were left in an acrylic observation cage (7.5×8×15 cm) for 1 hour. The mice were put back into the cage immediately after the application of the antigen solution to the rostral back, and the behavior of the mice was monitored unattended with an 8 mm video camera recorder. […] During the observation, scratching movements with the hind paws around the site of antigen solution application was counted. […] A series of these movements was counted as a single scratching movement.

Compound	The number of scratching movements during 1 hr after the hapten applications
CCNc1ncc2c(n1)N1CCC[C@H]1CN(Cc1ccc(F)cc1F)C2=O [Compound 3, (S)-5-(2,4-Difluorobenzyl)-9-ethylamino-1,2,3,3a,4,5-hexahydro-5,8,10,10b-tetraazabenzo[e]azulen-6-one]	225±37 counts
CCNc1ncc2c(n1)N1CCC[C@H]1CN(CC1CCN(C(=O)c3ccco3)CC1)C2=O [Compound 35, (S)-9-Ethylamino-5-[1-(furan-2-carbonyl)piperidin-4-yl]methyl-1,2,3,3a,4,5-hexahydro-5,8,10,10b-tetraazabenzo[e]azulen-6-one]	84±33 counts
